Experiments:
[1] = test system: salt-depleted, conscious marmosets; test: Marmoset blood pressure reduction on intravenous administration; assay type: in vivo, Marmoset monkeys (Callithrix jacchus); details: 100 micrograms/kg intravenously
Experimental: The blood pressure reducing activity of the renin inhibitor compound of Example 1 was determined in vivo in Marmoset monkeys using the following procedure. Common Marmoset monkeys (Callithrix jacchus, Charles River, both sexes, body weight ca. 400 g) were placed on a modified high protein low sodium diet (Purina, St. Louis, Mo.) for 1 week. 24 hours prior to the administration of test compound, Lasix (5 mg/kg, im) was given. On the day of the test, the animal was anesthetized with isoflurane, body weight recorded, and the left femoral artery and vein were catheterized. The animal was allowed to regain consciousness and the title compound of Example 1 (100 micrograms/kg) was administered intravenously in 0.1 mL/kg polyethylene glycol 400 at time zero. Mean arterial blood pressure (MABP) in mmHg was then recorded every ten minutes until 120 minutes.

[2] = molecular target: T1, human renin (Homo sapiens, UniProt P00797); test: Human renin inhibition in vitro; assay type: biochemical
T1 construct: purchased National Institute for Biological Standards, London
T1 sequence (P00797 67-406): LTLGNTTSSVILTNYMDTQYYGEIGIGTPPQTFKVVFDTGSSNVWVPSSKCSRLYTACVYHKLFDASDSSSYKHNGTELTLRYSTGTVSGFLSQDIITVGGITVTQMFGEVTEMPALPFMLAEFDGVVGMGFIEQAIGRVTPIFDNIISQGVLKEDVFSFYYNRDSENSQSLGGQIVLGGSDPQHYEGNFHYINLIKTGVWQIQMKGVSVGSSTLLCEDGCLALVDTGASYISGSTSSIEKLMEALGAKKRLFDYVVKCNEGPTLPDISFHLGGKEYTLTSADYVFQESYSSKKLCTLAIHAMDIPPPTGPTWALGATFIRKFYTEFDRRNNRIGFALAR
Experimental: Compounds of Formula I were evaluated as inhibitors of human renin in an in vitro assay, as follows: This human renin inhibition test has been previously described in detail [Papaioannou et al., Clinical and Experimental Hypertension, A7(9), 1243-1257 (1985)]. Human renin was obtained from the National Institute for Biological Standards, London. An incubation mixture was prepared containing the following components: in a total volume of 0.25 mL: 100 mM Tris-acetate buffer at pH 7.4, 25×10^−6 Goldblatt units of renin, 0.05 mL of plasma from human volunteers taking oral contraceptives, 6.0 mM Na-EDTA, 2.4 mM phenylmethyl sulfonyl fluoride, 1.5 mM 8-hydroxyquinoline, 0.4 mg/mL bovine serum albumin (BSA), and 0.024 mg/mL neomycin sulfate. This mixture was incubated for two hours at 37° C. in the presence or absence of renin inhibitors. The produced angiotensin I was determined by radioimmunoassay (New England Nuclear kit). Test compounds to be assayed were dissolved in DMSO and diluted with 100 mM Tris-acetate buffer at pH 7.4 containing 0.5% BSA to the appropriate concentration. The final concentration of organic solvent in the reaction mixture was less than 1%. Control incubations at 37° C. were used to correct for effects of organic solvent on renin activity.

[3] = molecular target: T2, renin (Rat plasma) (Rattus norvegicus, UniProt P08424); test: Renin inhibitor species specificity, rat plasma renin activity; assay type: biochemical
T2 construct: the animal plasma is the source of both the renin substrate and the renin enzyme; from tissue; host or cells: pooled rat plasma
T2 sequence (P08424 65-402): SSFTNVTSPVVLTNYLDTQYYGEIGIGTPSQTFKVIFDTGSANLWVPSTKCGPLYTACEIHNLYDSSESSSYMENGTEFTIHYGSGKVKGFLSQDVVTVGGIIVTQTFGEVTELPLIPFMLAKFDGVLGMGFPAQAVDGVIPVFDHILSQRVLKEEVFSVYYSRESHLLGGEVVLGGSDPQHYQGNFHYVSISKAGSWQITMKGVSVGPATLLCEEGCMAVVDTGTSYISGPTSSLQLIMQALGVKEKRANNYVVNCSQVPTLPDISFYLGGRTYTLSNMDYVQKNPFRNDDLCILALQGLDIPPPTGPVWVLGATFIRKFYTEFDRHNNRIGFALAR
Experimental: Blood was collected in a 10 ml Becton Dickinson vacutainer tube with 0.1 ml of 15% EDTA (K3) solution (15 mg) from normal animals or high renin animals; i.e., those pre-treated with 5 mg/kg of Lasix® intramuscularly 2 times within a 6 hour interval 24 hours prior to bleeding. The blood was then centrifuged at 2500 RPM for 20 minutes and the plasma from the various species respectively pooled, aliquoted and stored in the freezer. The human plasma source was taking a prescription of an angiotensin converting enzyme inhibitor.
The plasma renin activity assay is a modification of the human renin inhibition test in that the animal plasma is the source of both the renin substrate and the renin enzyme. In a total volume of 0.1 ml, 90 mM Tris-acetate buffer, pH 7.5, 12 mM sodium EDTA, 0.012 mg/ml neomycin sulfate, 0.9 mg/ml bovine serum albumin, 1.61 mM phenylmethyl sulfonyl fluoride, 4 mM 8-hydroxyquinoline and 0.09 ml of the animal or human plasmas were incubated for 2 hours at 37° C. in a shaking water bath or at 4° C. in an ice bath in the presence or absence of renin inhibitors. The produced angiotensin I was determined by radioimmunoassay (New England Nuclear kit).
The amount of angiotensin I generated during the 2 hours at 4° C. was usually less than 5% of that activity produced at 37° C.; however, the 4° C. background values were nevertheless subtracted from the 37° C. ones for the 100% activity values. The renin inhibitors were assayed in duplicate using 5 concentrations and the data is expressed as a percent of the 100% total renin activity.

C#CC[C@H](NC(=O)C(CC(=O)N(C)CCN(C)C)Cc1ccccc1)C(=O)NC(CC1CCCCC1)[C@@H](O)C(O)CC(C)C (relative stereo) [Example 1, N1-[1R*-[[[1S,1R*-(cyclohexylmethyl)-2S*,3R*-dihydroxy-5-methylhexyl]amino]carbonyl]-3-butynyl]-N4-[2-(dimethylamino)ethyl]-N4-methyl-2S*-(phenylmethyl)butanediamide]
MABP ([1]; 10 min (n = 3)): 106 mmHg | MABP ([1]; 20 min (n = 3)): 97 mmHg | MABP ([1]; 30 min (n = 3)): 93 mmHg | MABP ([1]; 40 min (n = 3)): 92 mmHg | MABP ([1]; 50 min (n = 3)): 90 mmHg | MABP ([1]; 60 min (n = 3)): 89 mmHg | MABP ([1]; 70 min (n = 3)): 87 mmHg | MABP ([1]; 80 min (n = 3)): 88 mmHg | MABP ([1]; 90 min (n = 3)): 89 mmHg | MABP ([1]; 100 min (n = 3)): 91 mmHg | MABP ([1]; 110 min (n = 3)): 93 mmHg | MABP ([1]; 120 min (n = 3)): 94 mmHg | MABP ([1]; time 0 min (n = 3)): 118 mmHg | effect on blood pressure (in words) ([1]; salt-depleted, conscious marmosets): lowers blood pressure | IC50 [2]: 1 nM | % of Total Renin Activity ([3]; 100 nM): 93% | % of Total Renin Activity ([3]; 400 nM): 76% | % of Total Renin Activity (range only) ([3]; 1600 nM): (23-34)
